Where two headings read alike, the source gives them in different places.
Tested on: Myotonic Dystrophy 1 affected patient fibroblasts (Coriel GM04602; 1600 CTG repeats)
Assay: DM1 foci reduction assay (EC50 assay; CAG10-Cy3 FISH, foci per nucleus)
Type: cell-based
Summary of the method: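 GM04602 DM1 patient fibroblasts (1600 CTG repeats) seeded 24 h, then treated 48 h at 37 °C with an 8-point 1:3 dose series from 3 μM. Cells PFA-fixed, ethanol-permeabilized and hybridized overnight with 5 nM CAG10-Cy3 probe, DAPI counterstained. Imaged at 20×, 4 fields per well, as average foci per nucleus.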

[1] = Homo sapiens, Fibroblast; DM1 patient fibroblasts, 48 h treatment, foci per nucleus; read-out: DM1 EC50, 48 h
[2] = Homo sapiens, Fibroblast; DM1 patient fibroblasts, foci per nucleus, 48 h treatment; read-out: DM1 EC50, 48 h

Compound | EC50 [1] | EC50 [2]
COCCOCCOCCOCCN(CCOCCOCCOCCOC)C(=O)CCCCn1cc(NC(=O)c2nc(NC(=O)CCNC(=O)c3cc(NC(=O)c4nccn4C)cn3C)cn2C)cc1C(=O)NCCCC(=O)Nc1cn(C)c(C(=O)NCCC(=O)Nc2cc(C(=O)Nc3cn(C)c(C(=O)NCCC(=O)N4CCC(N5CCN(C(=O)OC(C)(C)C)CC5)CC4)n3)n(C)c2)n1 [Compound B-242] | > 1 µM | –
Cn1cnc(NC(=O)c2cc(NC(=O)CCNC(=O)c3nc(NC(=O)CCCNC(=O)c4cc(NC(=O)c5nc(NC(=O)CCNC(=O)c6cc(NC(=O)c7nccn7C)cn6C)cn5C)cn4C)cn3C)cn2C)c1 [Compound B-243] | > 1 µM | –
Cn1cc(NC(=O)c2nc(NC(=O)CCNC(=O)c3cc(NC(=O)c4nccn4C)cn3C)cn2C)cc1C(=O)NCCCC(=O)Nc1cn(C)c(C(=O)NCCC(=O)Nc2cc(C(=O)Nc3cn(C)c(C(=O)NCCCN4CCC(C#CC#CC5CCNCC5)CC4)n3)n(C)c2)n1 [Compound B-250] | 0.1 to 0.5 µM | –
Cn1cnc(NC(=O)c2cc(NC(=O)CCNC(=O)c3nc(NC(=O)CCCNC(=O)c4cc(NC(=O)c5nc(NC(=O)CCNC(=O)c6cc(NC(=O)c7nccn7C)cn6C)cn5C)cn4CCCCCCN=[N+]=[N-])cn3C)cn2C)c1 [Compound B-252] | > 1 µM | –
CN(C)CCCNC(=O)c1cc(NC(=O)CCNC(=O)c2nc(NC(=O)CCCNC(=O)c3cc(NC(=O)c4nc(NC(=O)CCNC(=O)c5cc(NC(=O)c6nccn6C)cn5C)cn4C)cn3CCCCCCN=[N+]=[N-])cn2C)cn1C [Compound B-254] | > 1 µM | –
COCCOCCOCCOCCN(CCOCCOCCOCCOC)C(=O)CCCCn1cc(NC(=O)c2nc(NC(=O)CCNC(=O)c3cc(NC(=O)c4nccn4C)cn3C)cn2C)cc1C(=O)NCCCC(=O)Nc1cn(C)c(C(=O)NCCC(=O)Nc2cc(C(=O)Nc3cn(C)c(C(=O)NCCC(=O)N4CCC(C#CC#CC5CCN(C(C)=O)CC5)CC4)n3)n(C)c2)n1 [Compound B-259] | > 1 µM | –
CCCCCNC(=O)CCNC(=O)c1nc(NC(=O)c2cc(NC(=O)CCNC(=O)c3nc(NC(=O)CCCNC(=O)c4cc(NC(=O)c5nc(NC(=O)CCNC(=O)c6cc(NC(=O)c7nccn7C)cn6C)cn5C)cn4CCCCC(=O)N(CCOCCOCCOCCOC)CCOCCOCCOCCOC)cn3C)cn2C)cn1C [Compound B-261] | 0.1 to 0.5 µM | –
Cn1cc(NC(=O)c2nc(NC(=O)CCNC(=O)c3cc(NC(=O)c4nccn4C)cn3C)cn2C)cc1C(=O)NCCCC(=O)Nc1cn(C)c(C(=O)NCCC(=O)Nc2cc(C(=O)Nc3cn(C)c(C(=O)NCCC(=O)N4CCC(CC5CC[N+](C)(C)CC5)CC4)n3)n(C)c2)n1 [Compound B-262] | > 1 µM | –
CCCNC(=O)CCNC(=O)c1nc(NC(=O)c2cc(NC(=O)CCNC(=O)c3nc(NC(=O)CCCNC(=O)c4cc(NC(=O)c5nc(NC(=O)CCNC(=O)c6cc(NC(=O)c7nccn7C)cn6C)cn5C)cn4CCCCCCNC(C)=O)cn3C)cn2C)cn1C [Compound B-292] | < 0.1 µM | –
CC(=O)NCCCCCCn1cc(NC(=O)c2nc(NC(=O)CCNC(=O)c3cc(NC(=O)c4nccn4C)cn3C)cn2C)cc1C(=O)NCCCC(=O)Nc1cn(C)c(C(=O)NCCC(=O)Nc2cc(C(=O)Nc3cn(C)c(C(=O)NCCC(=O)N4CCC(C#CC#CC5CCNCC5)CC4)n3)n(C)c2)n1 [Compound B-294] | < 0.1 µM | –
CN(C)C(=O)c1nc(NC(=O)c2cc(NC(=O)CCNC(=O)c3nc(NC(=O)CCCNC(=O)c4cc(NC(=O)c5nc(NC(=O)CCNC(=O)c6cc(NC(=O)c7nccn7C)cn6C)cn5C)cn4C)cn3C)cn2C)cn1C [Compound B-314] | > 1 µM | –
CCCNC(=O)CCNC(=O)c1nc(NC(=O)c2cc(NC(=O)CCNC(=O)c3nc(NC(=O)CCCCNC(=O)c4cc(NC(=O)c5nc(NC(=O)CCNC(=O)c6cc(NC(=O)c7nccn7C)cn6C)cn5C)cn4C)cn3C)cn2C)cn1C [Compound B-317] | > 1 µM | –
Cn1cc(NC(=O)c2nc(NC(=O)CCNC(=O)c3cc(NC(=O)c4nccn4C)cn3C)cn2C)cc1C(=O)NCCCC(=O)Nc1cn(C)c(C(=O)NCCC(=O)Nc2cc(C(=O)Nc3cn(C)c(C(=O)NCCC(=O)NCCCCCN4CCC(C#CC#CC5CCNCC5)CC4)n3)n(C)c2)n1 [Compound B-336] | > 1 µM | –
Cn1cc(NC(=O)c2nc(NC(=O)CCNC(=O)c3cc(NC(=O)c4nccn4C)cn3C)cn2C)cc1C(=O)NCCCC(=O)Nc1cn(C)c(C(=O)NCCC(=O)Nc2cc(C(=O)Nc3cn(C)c(C(=O)NCCCCCCCNC(=O)c4cccc(C(=O)OC(C)(C)C)c4)n3)n(C)c2)n1 [Compound B-338] | > 1 µM | –
COC(=O)c1cccc(OCCOCCOCCNC(=O)c2nc(NC(=O)c3cc(NC(=O)CCNC(=O)c4nc(NC(=O)CCCNC(=O)c5cc(NC(=O)c6nc(NC(=O)CCNC(=O)c7cc(NC(=O)c8nccn8C)cn7C)cn6C)cn5C)cn4C)cn3C)cn2C)c1 [Compound B-339] | 0.5 to 1 µM | –
COC(=O)c1cccc(CCCCCN(C)CCCNC(=O)c2nc(NC(=O)c3cc(NC(=O)CCNC(=O)c4nc(NC(=O)CCCNC(=O)c5cc(NC(=O)c6nc(NC(=O)CCNC(=O)c7cc(NC(=O)c8nccn8C)cn7C)cn6C)cn5C)cn4C)cn3C)cn2C)c1 [Compound B-340] | < 0.1 µM | –
COC(=O)c1cncc(OCCOCCOCCNC(=O)c2nc(NC(=O)c3cc(NC(=O)CCNC(=O)c4nc(NC(=O)CCCNC(=O)c5cc(NC(=O)c6nc(NC(=O)CCNC(=O)c7cc(NC(=O)c8nccn8C)cn7C)cn6C)cn5C)cn4C)cn3C)cn2C)c1 [Compound B-342] | 0.1 to 0.5 µM | –
CCN(CC)CCCC[C@H](NC(=O)c1cccc(C(=O)OC(C)(C)C)c1)C(=O)NCCOCCOCCOCCOCCOCCNC(=O)c1nc(NC(=O)c2cc(NC(=O)CCNC(=O)c3nc(NC(=O)CCCNC(=O)c4cc(NC(=O)c5nc(NC(=O)CCNC(=O)c6cc(NC(=O)c7nccn7C)cn6C)cn5C)cn4C)cn3C)cn2C)cn1C [Compound B-344] | 0.5 to 1 µM | –
CCN(CC)CCCC[C@H](NC(=O)c1cccc(C(=O)OC(C)(C)C)c1)C(=O)NCCOCCOCCOCCNC(=O)c1nc(NC(=O)c2cc(NC(=O)CCNC(=O)c3nc(NC(=O)CCCNC(=O)c4cc(NC(=O)c5nc(NC(=O)CCNC(=O)c6cc(NC(=O)c7nccn7C)cn6C)cn5C)cn4C)cn3C)cn2C)cn1C [Compound B-353] | 0.1 to 0.5 µM | –
CCN(CC)CCCC[C@H](NC(=O)c1cccc(C(=O)OC(C)(C)C)c1)C(=O)NCCOCCOCCOCCNC(=O)CCNC(=O)c1nc(NC(=O)c2cc(NC(=O)CCNC(=O)c3nc(NC(=O)CCCNC(=O)c4cc(NC(=O)c5nc(NC(=O)CCNC(=O)c6cc(NC(=O)c7nccn7C)cn6C)cn5C)cn4C)cn3C)cn2C)cn1C [Compound B-355] | 0.1 to 0.5 µM | –
CN(CCCNC(=O)OC(C)(C)C)CCCNC(=O)c1cc(NC(=O)CCNC(=O)c2nc(NC(=O)CCCNC(=O)c3cc(NC(=O)c4nc(NC(=O)CCNC(=O)c5cc(NC(=O)c6nccn6C)cn5C)cn4C)cn3CCCCCCN=[N+]=[N-])cn2C)cn1C [Compound B-357] | > 1 µM | –
Cn1cc(NC(=O)c2nc(NC(=O)CCNC(=O)c3cc(NC(=O)c4nccn4C)cn3C)cn2C)cc1C(=O)NCCCC(=O)Nc1cn(C)c(C(=O)NCCC(=O)Nc2cc(C(=O)Nc3cn(C)c(C(=O)NCCCN4CCC(C#CC#CC5CCN(C(=O)OC(C)(C)C)CC5)CC4)n3)n(C)c2)n1 [Compound B-360] | < 0.1 µM | –
CN(C)CCCCNC(=O)c1nc(NC(=O)c2cc(NC(=O)CCNC(=O)c3nc(NC(=O)CC4(CNC(=O)c5cc(NC(=O)c6nc(NC(=O)CCNC(=O)c7cc(NC(=O)c8nccn8C)cn7C)cn6C)cn5C)CC4)cn3C)cn2C)cn1C [Compound B-434] | – | < 0.1 µM
CCCNC(=O)c1nc(NC(=O)c2cc(NC(=O)CCNC(=O)c3nc(NC(=O)CC4(CNC(=O)c5cc(NC(=O)c6nc(NC(=O)CCNC(=O)c7cc(NC(=O)c8nccn8C)cn7C)cn6C)cn5C)CC4)cn3C)cn2C)cn1C [Compound B-435, 1-methyl-4-(3-{[1-methyl-4-(1-methylimidazole-2-amido)pyrrol-2-yl]formamido}propanamido)-N-[1-methyl-5-({[1-({[1-methyl-2-({2-[(1-methyl-5-{[1-methyl-2-(propylcarbamoyl)imidazol-4-yl]carbamoyl}pyrrol-3-yl)carbamoyl]ethyl}carbamoyl)imidazol-4-yl]carbamoyl}methyl)cyclopropyl]methyl}carbamoyl)pyrrol-3-yl]imidazole-2-carboxamide] | – | < 0.1 µM
CCn1cc(NC(=O)c2nc(NC(=O)CCNC(=O)c3cc(NC(=O)c4nccn4C)cn3C)cn2C)cc1C(=O)NCC1(CC(=O)Nc2cn(C)c(C(=O)NCCC(=O)Nc3cc(C(=O)Nc4cn(C)c(C(=O)NCCCCN(C)C)n4)n(C)c3)n2)CC1 [Compound B-436] | – | < 0.1 µM
CCCNC(=O)c1nc(NC(=O)c2cc(NC(=O)CCNC(=O)c3nc(NC(=O)CC4(CNC(=O)c5cc(NC(=O)c6nc(NC(=O)CCNC(=O)c7cc(NC(=O)c8nccn8CC(F)(F)F)cn7C)cn6C)cn5C)CNC4)cn3C)cn2C)cn1C [Compound B-440] | – | 0.1 to 0.5 µM
CC(C)n1cc(NC(=O)c2nc(NC(=O)CCNC(=O)c3cc(NC(=O)c4nccn4C)cn3C)cn2C)cc1C(=O)NCC1(CC(=O)Nc2cn(C)c(C(=O)NCCC(=O)Nc3cc(C(=O)Nc4cn(C)c(C(=O)NCCCCN(C)C)n4)n(C)c3)n2)CC1 [Compound B-441] | – | < 0.1 µM

From patent US20250368628A1, “METHODS AND COMPOUNDS FOR MODULATING INHERITED GENETIC DISEASES” (Design Therapeutics, Inc., priority 2022, published 2025)
